Experimental data as given in patent US20140234373A1, “Methods of Promoting Immune Tolerance” (Georgia Regents University, priority 2011, published 2014).

How the values were obtained:
OT-1 T cells = assay: DC suppression assay (splenic DCs from treated mice with OT-1 T cells); assay type: in vivo; conditions: DCs from pDNA/PEI-treated B6 mice, 1MT 100 μM
Method: MACS-enriched splenic DCs (CD11c+) and Tregs (CD4+CD25+) were isolated according to manufacturer's instructions, except that cells were incubated with beads at RT (Magnetic Cell Separation Technology (MACS)—Miltenyi Biotec Inc., Auburn, Calif.). T cell stimulatory activity of DCs was assessed by culturing graded numbers of DCs (X-Y) with responder (MACS-enriched) CD8+ T cells from OT-1 (+SIINFEKL peptide) (SEQ ID NO:1) TCR-Tg mice+/−1MT as described (11). Suppressor activity of splenic Tregs was assessed by culturing graded numbers of Tregs with responder A1 (H-Y-specific) T cells, APCs (female CBA) and male (H-Y) peptide; a cocktail of anti-PD-1, anti-PD-L1, and anti-PD-L2 mAbs was added to some cultures to block PD-1-PD-L interactions as described (Baban, et al., J Immunol, 183:2475-2483 (2009), Sharma, et al., J Clin Invest 117:2570-2582 (2007)).
Assays to detect IDO-dependent T cell regulatory phenotypes in splenic DCs were performed as previously described. Briefly, MACS enriched (CD11c^+) spleen cells were cultured for 72 hours with MACS-enriched CD8α^+ T cells from OT-1 TCR transgenic mice and OVA257-264 peptide (SIINFEKL (SEQ ID NO:1)), 100 nM). Proliferation was assessed by adding 1 μCi methyl-[^3H]-thymidine for the final 6 hours and quantified using a BetaPlate counter (Wallac). […] Proliferation was assessed as described above. […]

[1] = test system: OVA-specific OT-2 T cells; assay: In vivo suppression assay, OT-2 T cell responses to OVA immunization; conditions: oral 1MT with pDNA/PEI, OVA-immunized B6 mice
Method: CFSE-labeled OVA-specific T cells from OT-1 or OT-2 donor mice were injected (i/v) into recipient B6 mice at least 1 day before immunization. CFSE labeling was performed by incubating MACS-enriched splenic CD8+ (OT-1) or CD4+ (OT-2) T cells at ˜10×10^6 cells/ml in PBS with 2 μM CFSE at 37° C. for 15 mins Cells were washed in PBS and injected into recipients (i/v). Mice were then immunized with […] erythrocyte-free spleen cells from Act-mOVA transgenic mice (s/c), and treated with pDNA/PEI nanoparticles and oral 1MT as indicated in FIG. 3.
Cells were stained with the following antibodies; anti-CD4 (clone RM4-5), anti-Thy1.1 (clone OX-7), anti-NK1.1 (clone PK136), anti-CD49b (clone DX5), anti-IFNγ (clone XMG1.2) from Pharmingen-BD-Biosciences (San Jose, Calif.), and analyzed using a LSR2 flow cytometer (Becton-Dickinson). CFSE was purchased from Invitrogen. For detecting intracellular IFNγ, cells were surface stained with anti-NK1.1 and anti-DX5, fixed with cytofix/cytoperm, washed with Perm/Wash solution (BD Bioscience) and stained with anti-IFNγ. Some cells were incubated in RPMI with 1 μM of brefeldin (BD Bioscience) for 3 hrs. with no further stimulations to accumulate cytokine before staining. For detecting IFNγ in OT-2 T cells, dLN cells were stimulated with PMA/ionomycin for 2 hrs. with brefeldin. […]

[2] = test system: B6 mice (mBSA-induced arthritis); assay: mBSA-induced arthritis model; assay type: in vivo; conditions: local joint inflammation
Method: B6 mice were sensitized with methylated BSA (mBSA, s/c, […] in CFA (day 0). Booster injections of mBSA in IFA were given on days 7 and 14, and arthritis was induced on day 21 by intra-articular injection of mBSA (10 μg in PBS, challenge).
Arthritis severity was evaluated by measuring joint swelling, neutrophil infiltration, and histological analysis as described (Lemos, et al., Proc Natl Acad Sci USA, 106:5954-5959 (2009)). In brief, joint swelling was assessed using a vernier caliper, and was expressed as the increase in diameter (mm) relative to non-inflamed joints in each mouse at experimental starting points. Neutrophils were counted after harvesting cells from articular cavities 24 hours after mBSA challenge. Results were presented as neutrophil numbers per cavity (mean±SEM). Arthritis was analyzed histologically 28 days after initial immunization (experimental endpoints). Knee joints were dissected and fixed in 10% buffered formalin for 3 days. […] Sections were examined by two independent observers and graded blindly using a semi-quantitative score from 0 to 3 (0, no; 1, mild; 2, moderate; 3, severe alterations) for the extent of (a) synovial lining layer hyperplasia and (b) infiltration of leukocytes into synovial membrane/joint space (as measures of joint inflammation); and (c) pannus formation and necrosis/erosion of cartilage (as a measure of joint destruction). […]

NODf mice = assay: Type I diabetes onset in NOD female mice; assay type: in vivo; conditions: oral 1MT, no other treatment
Description: IDO slows T1D progression in a subset of NODf mice (FIG. 10 (-▴-)), as IDO inhibitor accelerated disease onset in at least 50% of NOD female mice.

## Cn1cc(C[C@@H](N)C(=O)O)c2ccccc21 [1MT, 1-methyl-[D]-tryptophan]
OT-1 T cells
  effect of adding 1MT on T cell responses: restored robust T cell responses
[1]
  effect of IDO inhibitor on suppressive effects of DNP treatment: abrogated
[2]
  effect of oral 1MT on ameliorative effects of pAT/PEI therapy: reversed
NODf mice
  mice that developed diabetes faster than control: 50%
NODf mice; listed as IDO inhibitor
  mice that developed diabetes faster than control: at least 50%
